# Biological target: KHK-C (Homo sapiens (Human), UniProt P50053)
# Test: 3-step coupled-enzyme KHK assay (KHK, PK, LDH; NADH disappearance)
# Format: biochemical
# Settings: recombinant KHK-C, 1 mM fructose, A340 at 37° C.
# Experimental: Specific high-throughput screening assays were developed for KHK-C and KHK-A using recombinant proteins. Purified human recombinant KHK-C and KHK-A were produced using the Bio-Rad Profinity eXact Fusion-Tag System and Profinia protein purification instrument. The assays consist of a 3-step, coupled-enzyme process involving fructokinase (KHK), pyruvate kinase (PK) and lactate dehydrogenase (LDH). ^1,2 The disappearance of NADH is measured kinetically by A340 at 37° C. The enzymatic assay was carried out in a total reaction volume of 200 ul containing 50 mM PIPES, 6 mM MgCl2, 100 mM KCl, 100 uM-5 mM ATP, 2 mM phosphoenolpyruvate, 0.3 mM NADH, 15 U of pyruvate kinase, 15 U of lactate dehydrogenase, and 75-1000 ng KHKC. 1 mM fructose was added to the reactions, except for the no fructose controls which utilized water. The high-throughput assay was used to identify inhibitors that have an IC50 value <5 μM for KHK-C.^5 The '559 pub also sets forth a KHK assay for testing inhibition activity of potential KHK inhibitors.
# Sequence of KHK-C (P50053 whole entry): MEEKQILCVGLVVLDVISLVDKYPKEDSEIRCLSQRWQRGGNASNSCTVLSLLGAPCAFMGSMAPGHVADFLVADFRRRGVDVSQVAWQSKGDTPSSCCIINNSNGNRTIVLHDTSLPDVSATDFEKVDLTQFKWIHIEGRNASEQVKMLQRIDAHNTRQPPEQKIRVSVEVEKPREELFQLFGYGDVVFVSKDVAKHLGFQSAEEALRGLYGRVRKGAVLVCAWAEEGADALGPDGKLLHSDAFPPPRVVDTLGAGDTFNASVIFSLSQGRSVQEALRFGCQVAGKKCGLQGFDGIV
row,Compound,IC50 [nM]
1,"Nc1cc(-c2ccc3c(C4CC4)nn(-c4ccccc4)c3c2)ccn1 [Compound C-28, 4-(3-cyclopropyl-1-phenyl-1H-indazol-6-yl)pyridin-2-amine]",700
2,"O=C(NC1CCNCC1)c1ccc2cnn(-c3ccccc3)c2c1 [Compound C-26, 1-phenyl-N-(piperidin-4-yl)-1H-indazole-6-carboxamide]",2300
3,"O=C(NC1CNC1)c1ccc2cnn(-c3ccccc3)c2c1 [Compound C-34, N-(azetidin-3-yl)-1-phenyl-1H-indazole-6-carboxamide]",580
4,"Cc1cccc(-n2ncc3ccc(C(=O)NC4CNC4)cc32)c1 [Compound C-33, N-(azetidin-3-yl)-1-(m-tolyl)-1H-indazole-6-carboxamide]",2300
5,"Cc1cccc(-n2ncc3ccc(-c4ccnc(N)c4)cc32)c1 [Compound C-5, 4-(1-(m-tolyl)-1H-indazol-6-yl)pyridin-2-amine]",280
6,"Cc1cccc(-n2ncc3ccc(C(=O)NC4CCNCC4)cc32)c1 [Compound C-32, N-(piperidin-4-yl)-1-(m-tolyl)-1H-indazole-6-carboxamide]",790
7,Cc1cccc(-n2ncc3ccc(NC(=O)C4CCN4)cc32)c1 (stereo not shown) [Compound C-72],1200
8,"Cc1cccc(-n2ncc3ccc(NC(=O)C4CNC4)cc32)c1 [Compound C-25, N-(1-(m-tolyl)-1H-indazol-6-yl)azetidine-3-carboxamide]",510

# Same assay, conditions: recombinant KHK-C, 1 mM fructose, A340 at 37° C.; heading: IC50 Result
row,Compound,IC50 [nM]
1,"Nc1cc(-c2ccc3cnn(-c4ccccc4)c3c2)ccn1 [Compound C-1, 4-(1-phenyl-1H-indazol-6-yl)pyridin-2-amine]",1170

# Tested on: aldoB−/− KO mice
# Test: Fructose-induced hypoglycemia in Aldolase B Knockout Mice
# Format: in vivo
# Settings: 25 mg/kg IP 30 min before and repeated at oral fructose gavage (1.5 g/kg), glucose over 90 minutes
# From the text: Example 12 describes fructokinase inhibition results and fructose-induce hypoglycemia prevention results obtained from in vivo assay in Aldolase B Knockout Mice. Hereditary Fructose intolerance is a rare genetic disease due to deficiency of aldolase B that is associated with over activation of KHK-C. One of the key features in these individuals is the development of acute hypoglycemia following exposure to fructose ingestion due to rapid uptake of glucose into the liver with the formation of glycogen. Recently, an aldolase-B KO (aldoB^−/−) mouse that has the clinical features of HFI in humans was developed. These mice develop immediate dose-dependent hypoglycemia in response to fructose, but also develop fatty liver within days of low grade fructose feeding.
# The procedure used in Example 12 consisted of first fasting animals for six hours, followed by the administration of fructose by oral gavage (45 mg fructose, equivalent to 1.5 g/kg body weight) or vehicle (water) to mice and following serum glucose levels over 90 minutes by measuring glucose with a glucometer from tail snip bleeds. With vehicle administration serum glucose stays normal, but when fructose is administered to aldolase B knockout mice a progressive fall in serum glucose occurs, as noted by the percent (%) of the baseline level. […]
row,Compound,"hypoglycemic response to fructose (serum glucose, % of baseline)"
1,"Cc1cccc(-n2ncc3ccc(NC(=O)C4CNC4)cc32)c1 [Compound C-25, N-(1-(m-tolyl)-1H-indazol-6-yl)azetidine-3-carboxamide]",hypoglycemic response was prevented

# Reference: patent publication US11083720B2, “Indazole inhibitors of fructokinase (KHK) and methods of use in treating KHK-mediated disorders or diseases” (REGENTS OF THE UNIVERSITY OF COLORADO, A BODY CORPORATE, priority 2017, dated 2021)
